Source: the supplement of paper PMC11061612

What was measured:
[1] = tested on: OVCAR-5 (Ovarian Carcinoma); test: Bliss excess, mean over the matrix (fraction); higher = more synergy
How it was run: (§1)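 Cell lines grown in DMEM/F12 or RPMI with 10% FBS were plated in 1536-well plates and held 24 hours at 37°C, 5% CO2 before 72 hours of exposure to two-drug dose matrices, with DMSO typically at 0.2%. CellTiter-Glo 2.0 luminescence gave viability, which was converted to inhibition. Vehicle wells were set to 0 and blank wells to 1. Combination Emax is the second-highest inhibition in the matrix, and Bliss excess is the observed combination effect minus the expected EA + EB − EA·EB, where EA and EB are the single-agent effects.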

[2] = tested on: LS-123 (Colorectal Carcinoma); test: as above
How it was run: as §1

[3] = tested on: KYAE-1 (Esophageal Adenocarcinoma); test: as above
How it was run: as §1

[4] = tested on: NCI-H2052 (Mesothelioma); test: as above
How it was run: as §1

[5] = tested on: EW-11 (Ewing's Sarcoma); test: combination Emax (second highest fraction inhibited in the dose matrix, 72 h); higher = more inhibition; extreme values may be limits of the assay
How it was run: as §1

[6] = tested on: BE-13 (T-Lymphoblastic Leukemia); test: as above
How it was run: as §1

[7] = tested on: KYAE-1 (Esophageal Adenocarcinoma); test: as above
How it was run: as §1

[8] = tested on: Detroit562 (Head and Neck Carcinoma); test: as above
How it was run: as §1

[9] = tested on: ALL-PO (B-Lymphoblastic Leukemia); test: as above
How it was run: as §1

[10] = tested on: FTC-133 (Thyroid Gland Carcinoma); test: as above
How it was run: as §1

[11] = tested on: HeLa (Cervical Carcinoma); test: as above
How it was run: as §1

[12] = tested on: KS-1 (Glioblastoma); test: as above
How it was run: as §1

[13] = tested on: BFTC-909 (Kidney Carcinoma); test: as above
How it was run: as §1

[14] = tested on: HuCCT1 (Biliary Tract Carcinoma); test: as above
How it was run: as §1

[15] = tested on: SNU-16 (Gastric Carcinoma); test: as above
How it was run: as §1

[16] = tested on: NCI-H2052 (Mesothelioma); test: as above
How it was run: as §1

[17] = tested on: NUGC-4 (Gastric Carcinoma); test: as above
How it was run: as §1

[18] = tested on: SNU-449 (Hepatocellular Carcinoma); test: as above
How it was run: as §1
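Wherever Bliss excess, mean over the matrix is given: after 72 h of two-drug dosing.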

| Compound | Bliss excess [1] | Bliss excess [2] | Bliss excess [3] | Bliss excess [4] | combination Emax [5] | combination Emax [6] | combination Emax [7] | combination Emax [8] | combination Emax [9] | combination Emax [10] | combination Emax [11] | combination Emax [12] | combination Emax [13] | combination Emax [14] | combination Emax [15] | combination Emax [16] | combination Emax [17] | combination Emax [18] |
| --- | --- | --- | --- | --- | --- | --- | --- | --- | --- | --- | --- | --- | --- | --- | --- | --- | --- | --- |
| CCc1c2c(nc3ccc(O)cc13)-c1cc3c(c(=O)n1C2)COC(=O)[C@]3(O)CC [SN-38] + CN(C)CCCOc1ccc(-c2ccc3ncc4c(c3c2)n(C2CCOCC2)c(=O)n4C)cn1 [AZD0156] (first compound max 0.3 µM, 7x7, partner max 1 µM) | -0.0235 | -0.0648 | -0.0188 | -0.0409 | 0.739 | 0.748 | 0.105 | 0.848 | 0.985 | 0.959 | 0.295 | 0.464 | 0.899 | 0.508 | 0.927 | 0.837 | 0.287 | 0.196 |
| Cc1c2c(nn1C)CSCc1cc(n(C)n1)CSc1cc(c3ccccc3c1)OCCCc1c(C(=O)O)n(C)c3c-2c(Cl)ccc13 [AZD5991] + CC(=O)O[C@H]1C(=O)[C@@]2(C)[C@H]([C@H](OC(=O)c3ccccc3)[C@]3(O)C[C@H](OC(=O)[C@H](O)[C@@H](NC(=O)c4ccccc4)c4ccccc4)C(C)=C1C3(C)C)[C@]1(OC(C)=O)CO[C@@H]1C[C@@H]2O [Paclitaxel] (first compound max 1 µM, 7x7, partner max 3 µM) | -0.0389 | -0.0691 | 0.0015 | – | 0.895 | 0.852 | 0.175 | – | – | – | – | 0.582 | – | 0.549 | 1 | – | – | 0.325 |
| C[C@@H](Oc1cc(-c2cnn(C3CCNCC3)c2)cnc1N)c1c(Cl)ccc(F)c1Cl [Crizotinib] + Cn1cnc2c(F)c(Nc3ccc(Br)cc3Cl)c(C(=O)NOCCO)cc21 [Selumetinib] (first compound max 10 µM, 7x7, partner max 10 µM) | -0.0324 | -0.0378 | -0.0153 | – | 0.81 | 0.974 | 0.0881 | – | – | – | – | 0.646 | – | 0.725 | 0.989 | – | – | 0.455 |
| C[C@@H]1COCCN1c1cc(C2([S@](C)(=N)=O)CC2)nc(-c2ccnc3[nH]ccc23)n1 [AZD6738] + C1CC(C1)(C(=O)[O-])C(=O)[O-].N.N.[Pt+2] [Carboplatin] (first compound max 10 µM, 7x7, partner max 10 µM) | -0.0347 | -0.0239 | -0.015 | – | 0.584 | 0.737 | 0.0812 | – | – | – | – | 0.431 | – | 0.683 | – | – | – | 0.227 |
| C=CCn1c(=O)c2cnc(Nc3ccc(N4CCN(C)CC4)cc3)nc2n1-c1cccc(C(C)(C)O)n1 [AZD1775] + CCc1c2c(nc3ccc(O)cc13)-c1cc3c(c(=O)n1C2)COC(=O)[C@]3(O)CC [SN-38] (first compound max 1 µM, partner max 0.3 µM) | -0.0215 | -0.0581 | -0.0013 | – | 0.723 | 1 | 0.267 | – | – | – | – | 0.52 | – | 0.809 | 0.989 | – | – | 0.61 |
| CS(=O)(=O)CCNCc1ccc(-c2ccc3ncnc(Nc4ccc(OCc5cccc(F)c5)c(Cl)c4)c3c2)o1 [Lapatinib] + NC1(c2ccc(-c3nc4ccn5c(=O)[nH]nc5c4cc3-c3ccccc3)cc2)CCC1 [MK-2206] (first compound max 10 µM, 7x7, partner max 10 µM) | -0.0101 | 0.0101 | 0.0176 | -0.0143 | 0.948 | 0.971 | 0.892 | – | – | – | – | 0.403 | 0.941 | 0.893 | 0.964 | 0.515 | – | 0.82 |
| C[C@@H](Nc1cc(F)cc(F)c1)c1cc(C(=O)N(C)C)cc2c(=O)cc(N3CCOCC3)oc12 [AZD8186] + CC(=O)c1c(C)c2cnc(Nc3ccc(N4CCNCC4)cn3)nc2n(C2CCCC2)c1=O [Palbociclib] (first compound max 10 µM, 7x7, partner max 10 µM) | 0.0014 | 0.0701 | -0.0036 | – | 0.428 | 0.62 | 0.11 | – | – | – | – | 0.428 | – | 0.479 | 0.639 | – | – | 0.391 |
| O=C(c1cc(Cc2n[nH]c(=O)c3ccccc23)ccc1F)N1CCN(C(=O)C2CC2)CC1 [Olaparib] + Cc1c2c(nn1C)CSCc1cc(n(C)n1)CSc1cc(c3ccccc3c1)OCCCc1c(C(=O)O)n(C)c3c-2c(Cl)ccc13 [AZD5991] (first compound max 10 µM, 7x7, partner max 1 µM) | -0.0729 | -0.0658 | 0.0031 | – | 0.831 | 0.498 | 0.231 | – | – | – | – | 0.0895 | – | 0.15 | 0.994 | – | – | 0.0781 |
| O=C(c1cc(Cc2n[nH]c(=O)c3ccccc23)ccc1F)N1CCN(C(=O)C2CC2)CC1 [Olaparib] + CC1(C)CCC(CN2CCN(c3ccc(C(=O)NS(=O)(=O)c4ccc(NCC5CCOCC5)c([N+](=O)[O-])c4)c(Oc4cnc5[nH]ccc5c4)c3)CC2)=C(c2ccc(Cl)cc2)C1 [Venetoclax] (first compound max 10 µM, 7x7, partner max 1 µM) | -0.061 | -0.0413 | -0.0116 | – | 0.698 | 0.315 | 0.154 | – | – | – | – | 0.0863 | – | 0.0844 | 0.607 | – | – | 0.0891 |
| CCc1c2c(nc3ccc(O)cc13)-c1cc3c(c(=O)n1C2)COC(=O)[C@]3(O)CC [SN-38] + O=C(c1cc(Cc2n[nH]c(=O)c3ccccc23)ccc1F)N1CCN(C(=O)C2CC2)CC1 [Olaparib] (first compound max 0.3 µM, 7x7, partner max 10 µM) | -0.0161 | 0.0301 | -0.0184 | – | 0.742 | 0.965 | 0.118 | – | 0.981 | – | 0.397 | 0.556 | 0.931 | 0.662 | 0.848 | – | – | 0.175 |
| C[C@@H]1COCCN1c1cc(C2([S@](C)(=N)=O)CC2)nc(-c2ccnc3[nH]ccc23)n1 [AZD6738] + Nc1ccn([C@@H]2O[C@H](CO)[C@@H](O)C2(F)F)c(=O)n1 [Gemcitabine] (first compound max 10 µM, 7x7, partner max 0.3 µM) | -0.0407 | 0.104 | -0.0077 | – | 0.833 | 1 | 0.0714 | – | – | – | – | – | – | 0.779 | 1 | – | – | 0.557 |
| O=C(c1cc(Cc2n[nH]c(=O)c3ccccc23)ccc1F)N1CCN(C(=O)C2CC2)CC1 [Olaparib] + COc1nnc2ccc(N3CCC(c4ccc(OCCN5CCN(C)C(=O)[C@H]5C)cc4)CC3)nn12 [AZD5153] (first compound max 10 µM, 7x7, partner max 1 µM) | -0.0584 | -0.0084 | -0.0202 | – | 0.712 | 0.648 | 0.156 | – | – | – | – | 0.582 | – | 0.456 | 0.769 | – | – | 0.208 |
| O=C(c1cc(Cc2n[nH]c(=O)c3ccccc23)ccc1F)N1CCN(C(=O)C2CC2)CC1 [Olaparib] + CN(CC[C@H](CSC1=CC=CC=C1)NC2=C(C=C(C=C2)S(=O)(=O)NC(=O)C3=CC=C(C=C3)N4CCC(CC4)[C@H](C5=CC=CC=C5C6=CC=C(C=C6)Cl)O)S(=O)(=O)C(F)(F)F)CCO [AZD4320] (first compound max 10 µM, 7x7, partner max 1 µM) | -0.0414 | -0.0647 | 0.0363 | – | 0.923 | 0.983 | 0.587 | – | – | – | – | 0.2 | – | 0.193 | 0.691 | – | – | 0.11 |
| CC1(C)CCC(CN2CCN(c3ccc(C(=O)NS(=O)(=O)c4ccc(NCC5CCOCC5)c([N+](=O)[O-])c4)c(Oc4cnc5[nH]ccc5c4)c3)CC2)=C(c2ccc(Cl)cc2)C1 [Venetoclax] + CS(=O)(=O)CCNCc1ccc(-c2ccc3ncnc(Nc4ccc(OCc5cccc(F)c5)c(Cl)c4)c3c2)o1 [Lapatinib] (first compound max 1 µM, 7x7, partner max 10 µM) | -0.0479 | -0.0595 | 0.0085 | – | 0.263 | 0.854 | 0.758 | – | – | – | – | 0.089 | – | 0.397 | 0.399 | – | – | 0.445 |
| C[C@@H](Nc1cc(F)cc(F)c1)c1cc(C(=O)N(C)C)cc2c(=O)cc(N3CCOCC3)oc12 [AZD8186] + C1CN(CCC1(C(=O)N[C@@H](CCO)C2=CC=C(C=C2)Cl)N)C3=NC=NC4=C3C=CN4 [AZD5363] (first compound max 10 µM, 7x7, partner max 10 µM) | -0.0442 | -0.0327 | -0.0101 | – | 0.579 | 0.16 | 0.154 | – | – | – | – | 0.458 | – | 0.413 | 0.22 | – | – | 0.198 |
| C[C@@H](Oc1cc(-c2cnn(C3CCNCC3)c2)cnc1N)c1c(Cl)ccc(F)c1Cl [Crizotinib] + CC1=C(C(=CC=C1)Cl)NC(=O)C2=CN=C(S2)NC3=CC(=NC(=N3)C)N4CCN(CC4)CCO [Dasatinib] (first compound max 10 µM, 7x7, partner max 2 µM) | 0.0338 | 0.0166 | 0 | – | 0.788 | 0.943 | 0.169 | – | – | – | – | 0.848 | – | 0.82 | 0.909 | – | – | 0.831 |
| CS(=O)(=O)CCNCc1ccc(-c2ccc3ncnc(Nc4ccc(OCc5cccc(F)c5)c(Cl)c4)c3c2)o1 [Lapatinib] + Cn1cnc2c(F)c(Nc3ccc(Br)cc3Cl)c(C(=O)NOCCO)cc21 [Selumetinib] (first compound max 10 µM, 7x7, partner max 10 µM) | -0.0161 | 0.0002 | 0.0206 | – | 0.195 | 0.887 | 0.83 | – | – | – | – | 0.342 | – | 0.801 | 0.557 | – | – | 0.514 |
